From patent publication US20260232660A1 (TARIS Biomedical LLC, priority 2023, published 2026)
Like-named read-outs stand apart in the source and are kept apart here. Marks after values point to notes of the source that are not given here.

Columns and labels:
[1] = in vivo; conditions: female, Domestic Yorkshire Crossbred, pig, urine, other: continuous intravesical infusion, 0.22 mg/kg/day
Source text: On Day ~7 a catheter was surgically placed in the bladder of each animal. The distal end of the catheter was anchored to a subcutaneous site and attached to a vascular access port (VAP). The port was secured, and the animals were allowed to recover. Each animal was subsequently fitted with a portable infusion pump that was attached to the bladder catheter via the VAP. […] All excreted urine was collected in 24-hour intervals through Day 6 or 8. Blood samples were collected daily on study Days 1 to 8. Bladder tissue samples were collected from each animal at necropsy.

[2] = tested on: orthotopic RT-112 bladder tumor
[3] = rat, in vivo
Source text: Rat bladders (5 groups of rats, n=3/group) were surgically catheterized under anesthesia and the catheter was externalized, tunneled subcutaneously, and connected to a vascular access harness (VAH) in the neck. Rats were transferred to individual metabolic cages with free access to food and water during the 1-week post-surgery recovery period. […] Plasma and bladder samples were collected at all time points.

[4] = first 6 hours
Procedure: Solution formulations were prepared at various strengths in order to administer 0.5 mL volume to each rat bladder to dose 2, 6, and 18 mg/kg. Corresponding doses in nominal amount of drug were 0.5, 1.5, and 4.5 mg, respectively. After 1 hour of post-installation, rats were transferred to metabolic cages for collection of samples for PK determination. […] At each blood sampling time point, bladder samples were taken from each rat for drug analysis. In addition, bladders collected at 96 hours in the 18 mg/kg dose (high-dose) group were microscopically evaluated. Urine collections were limited to initial 0-6 hours post dose from all rats.

[5] = tested on: orthotopic UM-UC-1 bladder tumors; test: Continuous bladder perfusion, orthotopic UM-UC-1 bladder cancer model; format: in vivo; conditions: 5 days perfusion; p<0.01 at 0.5, p<0.001 at 1.0 and 5 μg/mL nominal urine concentrations
Procedure: Perfusion studies: The bladders of the study animals were cannulated on Day 1 and the animals were allowed to recover for 3 days. On Day 5, UM-UC-1 cells (2×10^6 cells) were injected into the lateral wall of each bladder. […] Based on the in vitro results, target urine concentrations of 0.5, 1.0, and 5.0 μg/mL were used in the perfusion experiments. Body weight, daily urine production, and daily water consumption were recorded. At necropsy, a plasma sample, bladder photographs, and bladder weight measurements were recorded.
The percent reduction in relative tumor weight between the control group and the drug perfusion groups was determined as an initial measure of efficacy.

## COc1cc(OC)cc(N(CCNC(C)C)c2ccc3ncc(-c4cnn(C)c4)nc3c2)c1 [erdafitinib, N-(3,5-dimethoxyphenyl)-N′-(1-methylethyl)-N-[3-(1-methyl-1H-pyrazol-4-yl)quinoxalin-6-yl]ethane-1,2-diamine]
[1]
  concentration at 8 day: 1270 ng/mL
[2]; 1.0 μg/mL perfusate concentration, p<0.05
  Bladder weight decrease vs vehicle control: significant bladder weight reduction
[2]; erdafitinib-treated group, Day 11
  Body weight loss, maximum mean value: up to −3%
[3]; female, Sprague-Dawley, 72 h
  C72 h: 2,420^a ng/mL
[3]
  C96 h: BQL
  C120 h: BQL
[4]; 2 mg/kg intravesical
  Percentage of compound eliminated as unchanged drug in the urine: 23.5%
[4]; 6 mg/kg intravesical
  Percentage of compound eliminated as unchanged drug in the urine: 19%
[4]; 18 mg/kg intravesical
  Percentage of compound eliminated as unchanged drug in the urine: 50.3%
[5]
  Bladder weight (tumor growth) vs vehicle control: significant dose-related decrease in bladder weight
